What was measured:
[1] = system: intestinal epithelial cell line T84 monolayers incubated with IL-4; test: Effect of LC-PUFA on IL-4 mediated barrier disruption: TER and 4 kDa FITC-dextran flux; format: cell-based, human; settings: for protective effect on IL-4 mediated barrier destruction (Flux), time and dose dependent: FIGS. 2A and 2B, 10 μM and 100 μM, 4 kD dextran flux; for IL-4 Flux / IL-4 TER: fatty acid 100 μM, 48 hr pre-incubation then 48 hr co-incubation with IL-4 2 ng/ml
Procedure: (§1) Monolayers (MC) of intestinal epithelial cell lines T84 (American Type Culture Collection (ATTC), Manassas, USA) were cultured on transwell filters (Corning, Costar BV, The Netherlands) allowing both mucosal and serosal sampling and stimulation of human intestinal epithelial cells. Two weeks post confluency the monolayers were incubated in the luminal compartment with polyunsaturated fatty acids ARA (arachidonic acid; 5,8,11,14-eicosatetraenoic acid), DHA (cis-4,7,10,13,16,19 docosahexaenoic acid), EPA (eicosapentaenoic acid) or control palmitic (C 16:0) acid (Palm) (Sigma, St. Louis, USA). The latter procedure was chosen to mimic the in vivo administration route of the dietary compounds. Cells were incubated with ARA, DHA, EPA, or palmitic acid for 0, 24, 48 and 72 hr at different concentrations (10 μM and 100 μM). Experiments were performed to evaluate basal barrier integrity. The epithelial barrier function was determined by measuring the transepithelial resistance (TER, Ω·cm^2) was measured by epithelial volt-ohm meter (EVOM; World Precision Instruments, Germany) and permeability for 4 kD FITC dextran (paracellular permeability marker, Sigma, USA). Resistance (Epithelial permeability for 4 kDa FITC-dextran was determined as follows. Prior to dextran fluxes the medium was refreshed with culture medium without phenol red for one hour followed by addition of 5 μl (stock 100 mg/ml) 4 kDa FITC-dextran to the lumenal compartment. After 30 min incubation 100 μl sample was collected from the serosal compartment and the fluorescent signal measured at excitation wavelength 485 nm and emission 520 nm (FLUOstar Galaxy®, BMG Labtechnologies, USA). FITC-dextran fluxes were calculated as pmol FITC-dextran/cm^2/h. Statistical analyses were performed using the ANOVA (SPSS version 10).
Monolayers (MC) of intestinal epithelial cell lines T84 (ATCC, USA) were cultured on transwell filters (Corning, Costar BV, The Netherlands) allowing both mucosal and serosal sampling and stimulation of human intestinal epithelial cells. Two weeks post confluency the monolayers were incubated in the presence of IL-4 (2 ng/ml, serosal compartment, Sigma, USA) with or without polyunsaturated fatty acids ARA, DHA, GLA, EPA, or control palmitic acid (10 μM or 100 μM, mucosal compartment, Sigma, St. Louis, USA). Cells were pre-incubated with ARA, DHA, EPA, or palmitic acid for 48 hr prior to the IL-4 incubation. The co-incubation of PUFA's and palmetic acid with IL-4 was continued for another 48 hr; while culture medium and additives were changed every 24 hr. The epithelial barrier function was determined by measuring the transepithelial resistance (TER) and permeability as described in example 1. Statistical evaluation was performed as described in example 1.

[2] = system: intestinal epithelial cell line T84 monolayers; test: Effect of LC-PUFA on basal (spontaneous) barrier integrity: TER and 4 kDa FITC-dextran flux; format: cell-based, human; settings: for basal barrier integrity (TER), time and dose dependent effect: FIGS. 1A and 1B, 10 μM and 100 μM; for Flux / Resistance (TER): fatty acid 100 μM, 72 hr incubation, spontaneous barrier integrity; for Flux: 4 kDa FITC-dextran
Procedure: as §1

[3] = system: MUC-2 expression in intestinal epithelial T84 cells; settings: FIG. 4, 24 h, 0.025-4.0 mM, compared to propionate and butyrate

Compound	protective effect on IL-4 mediated barrier destruction (Flux), time and dose dependent [1]	IL-4 Flux [1] [pmol FITC-dextran/cm^2/h]	IL-4 TER [1]	basal barrier integrity (TER), time and dose dependent effect [2]	Flux [2] [pmol FITC-dextran/cm^2/h]	Resistance (TER) [2]	MUC-2 expression (mucus production) [3]
CCCCC/C=C\C/C=C\C/C=C\C/C=C\CCCC(=O)O [ARA, 5,8,11,14-eicosatetraenoic acid]	decreased 4 kD dextran flux	218	636 Ω·cm^2	increased resistance	28	1816 Ω·cm^2	–
CCC=CCC=CCC=CCC=CCC=CC/C=C\CCC(=O)O [DHA, cis-4,7,10,13,16,19 docosahexaenoic acid]	decreased 4 kD dextran flux	271	547 Ω·cm^2	increased resistance	72	1574 Ω·cm^2	–
CC/C=C\C/C=C\C/C=C\C/C=C\C/C=C\CCCC(=O)O [EPA, eicosapentaenoic acid]	–	228	539 Ω·cm^2	–	65	1493 Ω·cm^2	–
CCCCC/C=C\C/C=C\C/C=C\CCCCC(=O)O [GLA]	decreased 4 kD dextran flux	–	–	increased resistance	–	–	–
CCCCCCCCCCCCCCCC(=O)O [Palmitic acid, palmitic (C 16:0) acid, reference compound]	–	777	321 Ω·cm^2	–	161	831 Ω·cm^2	–
CC(=O)O [acetate]	–	–	–	–	–	–	more potent in stimulating MUC-2 expression

Reference: patent US10499676B2, “Intestinal barrier integrity” (N.V. Nutricia, priority 2004, dated 2019)
